Columns and labels:
Format in all cases: binding
[1] = system: anti-TNFα antibody; assay: Nano-ESI-MS negative control: epitope peptide mixed with an unrelated antibody; conditions: 200 mM ammonium acetate pH 6.7, peptide:antibody 13:1
Procedure: Negative controls were investigated to confirm specificity of in-solution complex formations. […] To further rule out non-specific interactions for epitope peptide P11 or epitope peptide P21, either of them was separately mixed with an unrelated anti-TNFα antibody (Figures S46 and S47).
The anti-TNFα antibody stock solution (2 µg/µL) was prepared from lyophilized antibody powder (article number: MAS: 23720, ThermoFisher Scientific) and 200 mM ammonium acetate (pH 6.7).
(§1) Antibody–peptide mixture solutions were prepared for ITEM FOUR experiments by mixing 5 µL of one antibody working solution with one assigned peptide working solution to generate antibody to peptide molar ratios of 1:2.1 for all solutions that contained the M7 antibody. For mixture solutions containing the M11.7 or the anti-TNFα antibody, 1:13 molar ratios were prepared. Antibodies were incubated together with peptides for at least one hour at room temperature prior to analysis.
Data acquisition for ITEM-FOUR experiments was performed as described in [18] with the Synapt G2S mass spectrometer (Waters MS-Technologies, Wilmslow, UK) and with the following instrumental settings: source temperature, 40 °C; capillary voltage, 1.0–1.3 kV; sample cone voltage, 130 V; source offset voltage, 130 V; trap gas flow (argon), 8.0 mL/min; helium gas: 20 bar. […] All measurements were recorded in duplicate. […]

[2] = system: monoclonal anti-hcTnT antibody M11.7; assay: ITEM-FOUR nano-ESI mass spectrometry: in-solution immune complex formation and gas-phase dissociation of M11.7 antibody–epitope peptide complexes; conditions: for in-solution immune complex formation with M11.7 (binding in words): nano-ESI-MS, 200 mM ammonium acetate pH 6.7
Procedure: (§2) Immune complex-containing solutions of a wild-type epitope peptide and its corresponding antibody, e.g., P11 and M7, were prepared by mixing the two components in 200 mM ammonium acetate buffer (pH 6.7), ensuring a molar excess of the epitope peptide over the antibody to achieve binding saturation. After an incubation period of one hour, the entire mixture (~3 µL) was loaded into a nano-ESI emitter and electrosprayed. The mass spectrometer was configured to transmit only ion signals with m/z values above 3850, effectively eliminating signals from the unbound peptide (Figure 1A).
as §1
(§3) Data acquisition for ITEM-FOUR experiments was performed as described in [18] with the Synapt G2S mass spectrometer (Waters MS-Technologies, Wilmslow, UK) and with the following instrumental settings: source temperature, 40 °C; capillary voltage, 1.0–1.3 kV; sample cone voltage, 130 V; source offset voltage, 130 V; trap gas flow (argon), 8.0 mL/min; helium gas: 20 bar. All mass spectra were acquired in positive-ion mode applying a mass window of m/z 200–8000. The quadrupole analyzer was used to block transmission of lower-molecular-mass ions: M1 = 5000 with dwell time of 25% and ramp time of 25%; M2 = 5000 with dwell time of 25% and ramp time of 25%; M3 = 5000. ΔCV in the TRAP collision cell was increased stepwise as follows: 0, 2, 6, 10, 14, 18, 22, 26, 30, 34, 40, 46, 52 and 58 V. The ion mobility separation mode was not used. All acquired scans during a given collision cell voltage difference setting were integrated to obtain an averaged spectrum from which ion intensities were extracted for ITEM-FOUR calculations. Data were acquired and processed with MassLynx software version 4.1 (Waters MS-Technologies). For exact time stamps of all measurements, refer to Table S2 in the Supplement (see also the deposited raw data supplement in the PRIDE directory). All mass spectra for each ΔCV setting were smoothed using the Savitzky-Golay method. Spectra of antibody solutions and antibody–peptide mixture solutions were smoothed using 30 cycles with a 15-mass unit window at the high mass end and at the low mass end with 3 cycles and a 2-mass unit window. All measurements were recorded in duplicate. The mass spectrometric raw data have been deposited via the ProteomeXchange Consortium in the PRIDE partner repository with the dataset identifier PXD058812 [70].
(§4) The Origin Pro 2023b (64-bit, OriginLab Corporation, Northampton, MA, USA) software package with an automation script for processing multiple datasets was used to graphically plot the extracted intensities of the ion signals of all relevant molecular entities (the immune complex with two bound peptides, the immune complex with one bound peptide, free antibodies, and free peptides) against their corresponding charge state for each collision cell voltage difference (ΔCV). Subsequently, Gaussian curve fittings were performed separately for each molecular entity. […] Iterations were performed for R2 values to be at least 0.91. Apices of Gaussian curves provided the intensities and the average m/z values for each molecular species. Intensity values of individual molecular entities (educts and products) were summed and normalized. Normalized intensities of educts and products from duplicate measurements were averaged.
(§5) The number of atoms from rituximab was used because the amino acid sequences of neither the M7 nor the M11.7 antibody were disclosed. […]

[3] = system: monoclonal anti-hcTnT antibody M7; assay: ITEM-FOUR nano-ESI mass spectrometry: in-solution immune complex formation and gas-phase dissociation of M7 antibody–epitope peptide complexes; conditions: for in-solution immune complex formation with M7 (binding in words): nano-ESI-MS, 200 mM ammonium acetate pH 6.7, peptide:antibody 2.1:1 (epitope series) or 13:1 (negative controls); for dx (V): Boltzmann curve parameter; for dx (V) / ΔCV50 (V) / Slope (%/V): peptide:antibody 2.1:1; for dx (V) / ΔCV50 (V) / Final (%) / Initial (%) / Slope (%/V): averaged from two acquisitions; for KD m0g# [Ø]: apparent gas-phase dissociation constant, dimensionless number, extrapolated to ambient temperature; for Binding Type: class by difference of normalized product ion intensities over ΔCV; for ΔCV50 (V): collision cell voltage difference for 50% dissociation, Boltzmann fit; for Final (%): normalized product ion quantity at highest applied ΔCV, peptide:antibody 2.1:1, 200 mM ammonium acetate pH 6.7; for Initial (%): normalized product ion quantity at lowest applied ΔCV, peptide:antibody 2.1:1, 200 mM ammonium acetate pH 6.7, at least 1 h RT, nano-ESI, ΔCV 0-58 V; for ΔGm0g# / Tamb ΔSm0g# / ΔHm0g#: pseudo thermodynamic value of gas-phase complex dissociation; for ΔGm0g#: Ellingham diagram read at Tamb; for Tamb ΔSm0g# / ΔHm0g#: extrapolated to Tamb; for Slope (%/V): slope of Boltzmann curve
Procedure: as §2, §1, §3, §4, §5

[4] = pseudo thermodynamic value of gas-phase complex dissociation, extrapolated to Tamb

Sequence | in-solution immune complex formation with M7 (binding in words) [3] | in-solution immune complex formation with M11.7 (binding in words) ([2]; peptide:antibody 13:1) | KD m0g# [Ø] [3] | in-solution immune complex formation with anti-TNFα antibody [1] | dx (V) [3] [V] | Binding Type [3] | ΔCV50 (V) [3] [V] | Final (%) [3] [%] | Initial (%) [3] [%] | ΔGm0g# [3] [kcal/mol] | Tamb ΔSm0g# [3] [kcal/mol] | ΔHm0g# [3] [kcal/mol] | Slope (%/V) [3] [%/V] | other results
GPSIVHRKSFHHHHHH [His-tag peptide, unrelated His-tag peptide used as negative control, reference compound] | did not produce any immune complexes | did not produce any immune complexes |  |  |  |  |  |  |  |  |  |  |  | 
LVSLKDRIERRRAER [Peptide P11] |  | no immune complexes were detected | 0.59 Ø | No immune complex signals were observed | 6.69 | orthodox (The differences in normalized product ion intensity values were always greater than 15 percentage points) | 25.27 | 84.36 | 56.43 | 0.306 | 9.312 | 9.62 | 1.04 | 
LVSLKDRIKRRRAER [Peptide P12] | no immune complex had formed in solution |  |  |  |  | non-binding (The differences in normalized product intensity values were less than 5 percentage points) |  | 92.28 | 89.38 |  |  |  |  | in-solution immune complex formation with M7 (binding in words) ([3]; listed as E138K): disrupted binding

Continued, in another order:

in-solution immune complex formation with M7 (binding in words) [3] | in-solution immune complex formation with M11.7 (binding in words) ([2]; peptide:antibody 13:1) | KD m0g# [Ø] [3] | Sequence | in-solution immune complex formation with anti-TNFα antibody [1] | dx (V) [3] [V] | Binding Type [3] | ΔCV50 (V) [3] [V] | Final (%) [3] [%] | Initial (%) [3] [%] | ΔGm0g# [3] [kcal/mol] | Tamb ΔSm0g# [3] [kcal/mol] | ΔHm0g# [3] [kcal/mol] | Slope (%/V) [3] [%/V] | other results
no immune complexes were detected |  |  | AEQQRIRNEREKERQ [Peptide P21] | No immune complex signals were observed |  |  |  |  |  |  |  |  |  | dx (V) ([2]; Boltzmann curve parameter, peptide:antibody 13:1, averaged from two acquisitions): 5.77 V; KD m0g# [Ø] ([2]; apparent gas-phase dissociation constant, dimensionless number, extrapolated to ambient temperature): 0.92 Ø; Binding Type ([2]; class by difference of normalized product ion intensities over ΔCV): orthodox (The differences in normalized product ion intensity values were always greater than 15 percentage points); ΔCV50 (V) ([2]; collision cell voltage difference for 50% dissociation, Boltzmann fit, peptide:antibody 13:1, averaged from two acquisitions): 12.77 V; Final (%) ([2]; normalized product ion quantity at highest applied ΔCV, peptide:antibody 13:1, 200 mM ammonium acetate pH 6.7, averaged from two acquisitions): 96.29%; Initial (%) ([2]; normalized product ion quantity at lowest applied ΔCV, peptide:antibody 13:1, 200 mM ammonium acetate pH 6.7, at least 1 h RT, nano-ESI, ΔCV 0-58 V, averaged from two acquisitions): 56.91%; ΔGm0g# ([2]; pseudo thermodynamic value of gas-phase complex dissociation, Ellingham diagram read at Tamb): 0.0502 kcal/mol; Tamb ΔSm0g# [2, 4]: 17.28 kcal/mol; ΔHm0g# [2, 4]: 17.34 kcal/mol; Slope (%/V) ([2]; slope of Boltzmann curve, peptide:antibody 13:1, averaged from two acquisitions): 1.71 %/V
 |  | 0.62 Ø | LVSLKDRIERRQAER [Peptide P17] |  | 6.46 | orthodox (The differences in normalized product ion intensity values were always greater than 15 percentage points) | 24.61 | 82.69 | 56.18 | 0.272 | 8.824 | 9.097 | 1.03 | 
 |  | 0.28 Ø | LVSLKDRIERRWAER [Peptide P14] |  | 4.33 | orthodox (The differences in normalized product ion intensity values were always greater than 15 percentage points) | 18.02 | 93.86 | 54.37 | 0.748 | 21.26 | 22.01 | 2.28 | 

— PMC12112476, “Mass Spectrometric ITEM-FOUR Analysis Reveals Coding Single-Nucleotide Polymorphisms in Human Cardiac Troponin T That Evade Detection by Sandwich ELISAs Which Use Monoclonal Antibodies M7 and M11.7 from the Elecsys Troponin T® Assay” (International Journal of Molecular Sciences, 2025)
